Results as given in patent US6022879A, “Bathocuproine treatment of neurologic disease” (priority 1998, dated 2000).

Experiments:
[1] = molecular target: T1, human Cu,Zn superoxide dismutase (SOD), wild type (Homo sapiens, UniProt P00441); assay: Reduction of enzyme-bound copper of SOD by a reductant, monitored spectrally at 680 nm; format: biochemical; conditions: Kpi pH 7.4, 37 degrees C
T1 construct: made in house; host or cells: E. coli
Protocol: (§1) SODs were present at a subunit concentration of 0.43 mM in 0.5 ml of 0.1 mM Kpi, pH 7.4 at 37 degrees C. Ascorbate (0.5 mM) was added at time zero and reduction was monitored spectrally at 680 nm for 1 hr.
(§2) SODs were present at a subunit concentration of 0.43 mM in 0.5 ml of 0.1 mM Kpi, pH 7.4 at 37 degrees C. H2 O2 (0.4 mM) was added at time zero and reduction was monitored spectrally at 680 nm for 5 minutes.
(§3) For more than two years the notion that FALS SODs could act as peroxidases and generate hydroxyl radical has been a subject of debate. However, H2 O2 can rapidly reduce Cu,Zn SOD and generate superoxide as a byproduct. (It is the addition of a second molecule of H2 O2 to give --OH that is extremely slow and of questionable significance). […] For example, it is possible to assess superoxide production from reduced SOD using the tetranitromethane (TNM) capture assay described by Hodgson and Fridovich (7).

[2] = molecular target: T2, human Cu,Zn superoxide dismutase (SOD), FALS mutant D90A (Homo sapiens, UniProt P00441, D91A); assay: as above; format: biochemical; conditions: Kpi pH 7.4, 37 degrees C
T2 construct: made in house; host or cells: E. coli BL21(DE3) plysS, pET-3d
Protocol: as §1, §2, §3

[3] = molecular target: T3, human Cu,Zn superoxide dismutase (SOD), FALS mutant G93A (Homo sapiens, UniProt P00441, G94A); assay: as above; format: biochemical; conditions: Kpi pH 7.4, 37 degrees C
T3 construct: made in house; host or cells: E. coli BL21(DE3) plysS, pET-3d
Protocol: as §1, §2, §3

[4] = molecular target: T4, human Cu,Zn superoxide dismutase (SOD), FALS mutant A4V (Homo sapiens, UniProt P00441, A5V); assay: as above; format: biochemical; conditions: Kpi pH 7.4, 37 degrees C
T4 construct: made in house; host or cells: E. coli BL21(DE3) plysS, pET-3d
Protocol: as §1, §2, §3

[5] = molecular target: T5, human Cu,Zn superoxide dismutase (SOD), site-directed mutant D124N (Asp124 to Asn, model zinc-deficient SOD) (Homo sapiens, UniProt P00441, D125N); assay: Reduction of enzyme-bound copper of SOD by a reductant, monitored spectrally at 680 nm (stopped-flow for ascorbate); format: biochemical
T5 construct: made in house; host or cells: E. coli
Protocol: To circumvent this problem, a site-directed human SOD mutant was prepared wherein aspartate124 was changed to asparagine (D124N).
as §1, §2, §3

[6] = system: G93A transgenic mice (overexpress human G93A ALS SOD mutant); assay: Bathocuproine in ALS SOD transgenic mice: onset and progression of paralysis; format: in vivo, mouse; conditions: intraperitoneal in soybean oil, daily 0.51 mg/100 g body weight, from 190 day old G93A mice
Protocol: Neither the overall efficiency nor the kinetics of Cu+1 removal was altered by sulfonic acid substituents on the ring(s) of the parent bathocuproine compound. Thus, the sulfonic acid groups serve mainly to increase water solubility and are not fundamental to copper binding activity. The unsubstituted parent compound, bathocuproine, is very lipid soluble and much more likely to cross the blood-brain barrier. In G93A transgenic mice, bathocuproine was dissolved in soybean oil and injected intraperitoneally at a daily dose of 0.51 mg/100 g body weight. Assuming uniform tissue distribution and fluid fraction equal to 0.7 of the mouse's body weight, this dose should give a cellular concentration of 20 µM or roughly a 4-fold molar excess over SOD protein concentration. […] After onset, paralysis progresses rapidly up the trunk and is ultimately fatal within about 14 days. Bathocuproine injections is initiated in 190 day old mice and the mice are observed for onset and progression of paralysis relative to untreated littermates. […] A group of non-transgenic mice are also injected to control for potential toxicities from bathocuproine itself.

[7] = 0.4 mM H2O2, SOD subunit 0.43 mM, 5 minutes
[8] = 0.5 mM ascorbate, SOD subunit 0.43 mM, 1 hr

T5 sequence (P00441 whole entry D125N): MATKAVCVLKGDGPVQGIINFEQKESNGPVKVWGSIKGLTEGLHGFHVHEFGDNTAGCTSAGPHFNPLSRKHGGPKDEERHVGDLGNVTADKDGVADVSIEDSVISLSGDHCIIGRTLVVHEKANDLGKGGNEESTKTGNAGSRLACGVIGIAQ
T1 sequence (P00441 whole entry): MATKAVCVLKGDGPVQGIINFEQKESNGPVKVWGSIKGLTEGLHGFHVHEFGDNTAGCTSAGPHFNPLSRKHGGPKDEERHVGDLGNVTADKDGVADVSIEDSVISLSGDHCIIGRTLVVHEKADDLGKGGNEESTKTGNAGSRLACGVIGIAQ
T3 sequence (P00441 whole entry G94A): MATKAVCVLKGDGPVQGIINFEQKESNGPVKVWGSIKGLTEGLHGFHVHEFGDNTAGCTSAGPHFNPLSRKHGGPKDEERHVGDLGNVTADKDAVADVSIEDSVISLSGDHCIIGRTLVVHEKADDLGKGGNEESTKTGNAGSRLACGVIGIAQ
T4 sequence (P00441 whole entry A5V): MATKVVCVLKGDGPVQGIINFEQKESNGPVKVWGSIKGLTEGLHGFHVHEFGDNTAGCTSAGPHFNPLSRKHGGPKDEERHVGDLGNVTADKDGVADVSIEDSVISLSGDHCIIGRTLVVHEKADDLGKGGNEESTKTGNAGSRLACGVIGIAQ
T2 sequence (P00441 whole entry D91A): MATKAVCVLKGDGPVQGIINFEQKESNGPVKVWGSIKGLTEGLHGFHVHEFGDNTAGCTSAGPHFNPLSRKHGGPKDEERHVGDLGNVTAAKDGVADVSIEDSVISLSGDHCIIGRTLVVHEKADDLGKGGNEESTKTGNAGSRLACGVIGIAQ

For `OO` [H2 O2, hydrogen peroxide], which “t1/2 for reduction by H2 O2” value [1, 7] is on record?
The value was 30.5 s.

And the “t1/2 for reduction by H2 O2” value [2, 7]?
The value was 30.9 s.

And the “t1/2 for reduction by H2 O2” value [3, 7]?
Its value is 24.2 s.

And the “t1/2 for reduction by H2 O2” value [4, 7]?
Its value is 21.2 s.

What about the “t1/2 for reduction by H2 O2” value ([5]; 0.4 mM H2O2, SOD subunit 0.43 mM, Kpi pH 7.4, 37 degrees C, 680 nm, 5 minutes) of the same compound?
The value was 26.7 s.

What does the source list for `O=C1O[C@H]([C@@H](O)CO)C(O)=C1O` [ascorbate, ascorbic acid]?
t1/2 for reduction by ascorbate ([1]; 0.5 mM ascorbate, SOD subunit 0.43 mM): 1700 s; t1/2 for reduction of ascorbate [2, 8]: 1770 s; t1/2 for reduction of ascorbate [3, 8]: 1240 s; t1/2 for reduction of SOD copper by ascorbate [4, 8]: 1550 s; rate of ascorbate-mediated reduction relative to wild-type SOD ([5]; 0.5 mM ascorbate, D124N versus wild-type): ~200 fold; t1/2 for reduction of SOD copper by ascorbate ([5]; 0.5 mM ascorbate, SOD subunit 0.43 mM, Kpi pH 7.4, 37 degrees C, stopped-flow spectroscopy): 8.9 s

Which “onset and progression of paralysis relative to untreated littermates” value [6] does the source give for `Cc1cc(-c2ccccc2)c2ccc3c(-c4ccccc4)cc(C)nc3c2n1` [bathocuproine] here?
The value was “delay of onset or slowing of progression is shown”.
